Data on 25 compounds can be found in patent US20240199612A1, “IMIDAZOPYRIDINYL INHIBITORS OF PLASMA KALLIKREIN” (SHIRE HUMAN GENETIC THERAPIES, INC., priority 2021, published 2024).

Molecules are shown by their SMILES.

Chain of human activated kallikrein enzyme (P03952 391-638 limits assumed): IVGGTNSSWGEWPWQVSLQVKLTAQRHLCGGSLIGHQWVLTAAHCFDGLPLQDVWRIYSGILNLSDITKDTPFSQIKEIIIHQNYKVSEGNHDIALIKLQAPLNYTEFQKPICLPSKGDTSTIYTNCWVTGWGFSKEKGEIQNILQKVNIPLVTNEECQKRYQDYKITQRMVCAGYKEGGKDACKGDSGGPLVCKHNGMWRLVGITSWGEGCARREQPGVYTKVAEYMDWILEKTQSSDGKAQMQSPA
Chain of human activated kallikrein enzyme (P03952 20-390 partner limits assumed): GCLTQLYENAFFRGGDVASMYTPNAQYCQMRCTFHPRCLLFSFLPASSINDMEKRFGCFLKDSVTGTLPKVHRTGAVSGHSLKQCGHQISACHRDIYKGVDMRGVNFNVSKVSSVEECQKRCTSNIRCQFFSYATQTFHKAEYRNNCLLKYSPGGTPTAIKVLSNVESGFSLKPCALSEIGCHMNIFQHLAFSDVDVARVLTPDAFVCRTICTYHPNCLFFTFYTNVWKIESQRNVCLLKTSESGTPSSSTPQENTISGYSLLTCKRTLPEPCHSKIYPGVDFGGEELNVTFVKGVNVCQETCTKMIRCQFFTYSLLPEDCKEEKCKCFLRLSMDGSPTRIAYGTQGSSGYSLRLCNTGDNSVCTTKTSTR

One test addresses human activated kallikrein enzyme (Homo sapiens, UniProt P03952). The test can be described thus: Inhibition of human activated plasma kallikrein, fluorogenic peptide substrate (PFR-AMC) assay, 500 pM enzyme format. The format is biochemical. As to conditions: format with 500 pM activated kallikrein, 300 uM PFR-AMC, 30 min preincubation, 10 min reaction, room temperature; read-out: Primary Dose Response Assay: Average EC50. The procedure: Inhibitory Activity of Exemplary Compounds against Plasma Kallikrein.
Compounds were evaluated for inhibition of the human activated kallikrein enzyme in two formats of an assay employing a fluorogenic peptide substrate. In one assay format, the concentrations of reagents were as follows: 20 mM Tris pH 7.5, 1 mM EDTA, 150 mM sodium chloride, 0.1% PEG-400, 0.1% Triton X-100, 500 pM activated kallikrein enzyme, 300 uM Pro-Phe-Arg-7-amido-4-methylcoumarin (PFR-AMC) substrate. Prior to reaction initiation with substrate, enzyme and inhibitors were preincubated for 30 min at room temperature. After initiation with substrate, reactions were incubated for 10 min at room temperature and fluorescence emission at 460 nm from 380 nm excitation measured with a microplate reader. In another assay format, the concentrations of reagents were as follows: 20 mM Tris pH 7.5, 1 mM EDTA, 150 mM sodium chloride, 0.1% PEG-400, 0.1% Triton X-100, 5 pM activated kallikrein enzyme, 300 uM PFR-AMC substrate. Prior to reaction initiation with substrate, enzyme and inhibitors were preincubated for 30 min at room temperature. After initiation with substrate, reactions were incubated for 18 hr at room temperature and fluorescence emission at 460 nm from 380 nm excitation measured with a microplate reader.
By EC50 is commonly meant the concentration needed to bring the measured effect to its halfway point. As for `CC(OC(=O)Nc1cc(NCc2cn3cc(C4CC4)ccc3n2)ncn1)c1cccc(Cl)c1F` (stereo not drawn) [Compound I-7, 1-(3-chloro-2-fluorophenyl)ethyl (6-(((6-cyclopropylimidazo[1,2-a]pyridin-2-yl)methyl)amino)pyrimidin-4-yl)carbamate], the EC50 fell in the range of 0.005 to 0.05 µM.

Turning to `C[C@@H](OC(=O)Nc1cc(NCc2cn3cc(C4CC4)ccc3n2)ncn1)c1cccc(Cl)c1` [Compound I-2, (R)-1-(3-chlorophenyl)ethyl (6-(((6-cyclopropylimidazo[1,2-a]pyridin-2-yl)methyl)amino)pyrimidin-4-yl)carbamate], the EC50 is less than 0.005 µM.

With `O=C(Nc1cc(OCc2cn3cc(C4CC4)ccc3n2)ccn1)OCc1cc(Cl)ccc1-n1cnnn1` [Compound I-12, 5-chloro-2-(1H-tetrazol-1-yl)benzyl (4-((6-cyclopropylimidazo[1,2-a]pyridin-2-yl)methoxy)pyridin-2-yl)carbamate], the EC50 was less than 0.005 µM.

Take `O=C(Nc1cc(N2C[C@@H](O)C[C@@H]2c2cn3cc(C4CC4)ccc3n2)ncn1)OCc1cc(Cl)ccn1` [Compound I-28, (4-chloropyridin-2-yl)methyl (6-((2R,4S)-2-(6-cyclopropylimidazo[1,2-a]pyridin-2-yl)-4-hydroxypyrrolidin-1-yl)pyrimidin-4-yl)carbamate]: the EC50 is less than 0.005 µM.

Turning to `C[C@H](OC(=O)Nc1cc(NCc2cn3cc(C4CC4)ccc3n2)ncn1)c1cccc(Cl)c1` [Compound I-3, (S)-1-(3-chlorophenyl)ethyl (6-(((6-cyclopropylimidazo[1,2-a]pyridin-2-yl)methyl)amino)pyrimidin-4-yl)carbamate], the EC50 fell in the range of 0.5 to 9 µM.

As for `O=C(Nc1cc2c(cn1)ncn2Cc1cn2cc(C3CC3)ccc2n1)OCc1cccc(Cl)c1` [Compound I-16, 3-chlorobenzyl (1-((6-cyclopropylimidazo[1,2-a]pyridin-2-yl)methyl)-1H-imidazo[4,5-c]pyridin-6-yl)carbamate], the EC50 lay in the range of 0.05 to 0.5 µM.

Turning to `O=C(Nc1cc(NCc2cn3cc(C4CC4)ccc3n2)ncn1)NC1Cc2ccc(Cl)cc21` (stereo not drawn) [Compound I-32, 1-(4-chlorobicyclo[4.2.0]octa-1(6),2,4-trien-7-yl)-3-(6-(((6-cyclopropylimidazo[1,2-a]pyridin-2-yl)methyl)amino)pyrimidin-4-yl)urea], the EC50 is 0.5 to 9 µM.

For the compound `COc1cccc(COC(=O)Nc2cc(NCc3cn4cc(C5CC5)ccc4n3)ncn2)c1` [Compound I-4, 3-methoxybenzyl (6-(((6-cyclopropylimidazo[1,2-a]pyridin-2-yl)methyl)amino)pyrimidin-4-yl)carbamate], the half-maximal effective concentration (EC50) is 0.05 to 0.5 µM.

As to `O=C(Nc1cc(NCc2cn3cc(C4CC4)ccc3n2)ncn1)OCc1cccc(Cl)c1` [Compound I-1, 3-Chlorobenzyl (6-(((6-cyclopropylimidazo[1,2-a]pyridin-2-yl)methyl)amino)pyrimidin-4-yl)carbamate], the EC50 was in the range of 0.005 to 0.05 µM.

On to `O=C(Nc1cn2c(Cc3cn4cc(C5CC5)ccc4n3)nnc2cn1)OCc1cccc(Cl)c1` [Compound I-14, 3-chlorobenzyl (3-((6-cyclopropylimidazo[1,2-a]pyridin-2-yl)methyl)-[1,2,4]triazolo[4,3-a]pyrazin-6-yl)carbamate], for which the EC50 lay within 0.05 to 0.5 µM.

In the case of `O=C(NCc1nccc(Cl)n1)Nc1cc(NCc2cn3cc(C4CC4)ccc3n2)ncn1` [Compound I-29, 1-((4-chloropyrimidin-2-yl)methyl)-3-(6-(((6-cyclopropylimidazo[1,2-a]pyridin-2-yl)methyl)amino)-pyrimidin-4-yl)urea], the EC50 fell in the range of 0.05 to 0.5 µM.

For `O=C(Nc1cc(NCc2cn3cc(C4CC4)ccc3n2)ncn1)N1CC(c2cccc(Cl)c2)C1` [Compound I-25, 3-(3-chlorophenyl)-N-(6-(((6-cyclopropylimidazo[1,2-a]pyridin-2-yl)methyl)amino)pyrimidin-4-yl)azetidine-1-carboxamide], the EC50 was more than 9 µM.

Take `O=C(NCc1cc(Cl)ccn1)Nc1cc(NCc2cn3cc(C4CC4)ccc3n2)ncn1` [Compound I-27, 1-((4-chloropyridin-2-yl)methyl)-3-(6-(((6-cyclopropylimidazo[1,2-a]pyridin-2-yl)methyl)amino)pyrimidin-4-yl)urea]: the EC50 fell in the range of 0.05 to 0.5 µM.

Take `O=C(Nc1cc2c(cn1)nnn2Cc1cn2cc(C3CC3)ccc2n1)OCc1cccc(Cl)c1` [Compound I-20, 3-chlorobenzyl (1-((6-cyclopropylimidazo[1,2-a]pyridin-2-yl)methyl)-1H-[1,2,3]triazolo[4,5-c]pyridin-6-yl)carbamate]: the EC50 lay in the range of 0.05 to 0.5 µM.

As to `CC(OC(=O)Nc1cc2c(cn1)ncn2Cc1cn2cc(C3CC3)ccc2n1)c1cccc(Cl)c1` (stereo not drawn) [Compound I-17, 1-(3-chlorophenyl)ethyl (1-((6-cyclopropylimidazo[1,2-a]pyridin-2-yl)methyl)-1H-imidazo[4,5-c]pyridin-6-yl)carbamate], the half-maximal effective concentration (EC50) is 0.05 to 0.5 µM.

Turning to `O=C(Nc1cc(N2C[C@@H](O)C[C@@H]2c2cn3cc(C4CC4)ccc3n2)ncn1)N1CC(c2ccccc2)C1` [Compound I-31, N-(6-((2R,4S)-2-(6-cyclopropylimidazo[1,2-a]pyridin-2-yl)-4-hydroxypyrrolidin-1-yl)pyrimidin-4-yl)-3-phenylazetidine-1-carboxamide], the EC50 lay in the range of 0.5 to 9 µM.

In the case of `CCC(OC(=O)Nc1cc(NCc2cn3cc(C4CC4)ccc3n2)ncn1)c1cccc(Cl)c1` (stereo not drawn) [Compound I-6, 1-(3-chlorophenyl)propyl (6-(((6-cyclopropylimidazo[1,2-a]pyridin-2-yl)methyl)amino)pyrimidin-4-yl)carbamate], the EC50 was in the range of 0.05 to 0.5 µM.

In the case of `O=C(Nc1cc(N2C[C@@H](O)C[C@@H]2c2cn3cc(C4CC4)ccc3n2)ncn1)N1CC(c2ncccn2)C1` [Compound I-33, N-(6-((2R,4S)-2-(6-cyclopropylimidazo[1,2-a]pyridin-2-yl)-4-hydroxypyrrolidin-1-yl)pyrimidin-4-yl)-3-(pyrimidin-2-yl)azetidine-1-carboxamide], the EC50 fell in the range of 0.05 to 0.5 µM.

Consider `COc1ccnc(CNC(=O)Nc2cc(NCc3cn4cc(C5CC5)ccc4n3)ncn2)n1` [Compound I-30, 1-(6-(((6-cyclopropylimidazo[1,2-a]pyridin-2-yl)methyl)amino)pyrimidin-4-yl)-3-((4-methoxypyrimidin-2-yl)methyl)urea], for which the EC50 was 0.5 to 9 µM.

`O=C(Nc1nccc2nn(Cc3cn4cc(C5CC5)ccc4n3)cc12)OCc1cc(Cl)ccc1-n1cnnn1` [Compound I-22, 5-chloro-2-(1H-tetrazol-1-yl)benzyl (2-((6-cyclopropylimidazo[1,2-a]pyridin-2-yl)methyl)-2H-pyrazolo[4,3-c]pyridin-4-yl)carbamate]: the EC50 is less than 0.005 µM.

`O=C(Nc1nccc2nn(Cc3cn4cc(C5CC5)ccc4n3)cc12)OCc1cccc(Cl)c1` [Compound I-19]: the EC50 was in the range of 0.005 to 0.05 µM.

In the case of `O=C(Nc1cc2c(cn1)ncn2Cc1cn2cc(C3CC3)ccc2n1)OCc1cc(Cl)ccc1-n1cnnn1` [Compound I-23, 5-chloro-2-(1H-tetrazol-1-yl)benzyl (1-((6-cyclopropylimidazo[1,2-a]pyridin-2-yl)methyl)-1H-imidazo[4,5-c]pyridin-6-yl)carbamate], the EC50 was less than 0.005 µM.

Regarding `O=C(NCc1cccc(Cl)c1)Nc1cc(NCc2cn3cc(C4CC4)ccc3n2)ncn1` [Compound I-24, 1-(3-chlorobenzyl)-3-(6-(((6-cyclopropylimidazo[1,2-a]pyridin-2-yl)methyl)amino)pyrimidin-4-yl)urea], the EC50 is 0.5 to 9 µM.

On to `Cc1ccnc(COC(=O)Nc2cc(NCc3cn4cc(C5CC5)ccc4n3)ncn2)n1` [Compound I-34, (4-methylpyrimidin-2-yl)methyl (6-(((6-cyclopropylimidazo[1,2-a]pyridin-2-yl)methyl)amino)pyrimidin-4-yl)carbamate], for which the EC50 was 0.005 to 0.05 µM.

As to `O=C(Nc1cc(NCc2cn3cc(C4CC4)ccc3n2)ncn1)OCC(O)c1cccc(Cl)c1` (stereo not drawn) [Compound I-9, 2-(3-chlorophenyl)-2-hydroxyethyl (6-(((6-cyclopropylimidazo[1,2-a]pyridin-2-yl)methyl)amino)pyrimidin-4-yl)carbamate], the EC50 was 0.005 to 0.05 µM.

The target in another test is T1, plasma kallikrein (Homo sapiens, UniProt P03952).
T1 construct: from tissue; host or cells: sodium citrate collected human plasma (78% final)
T1 sequence (P03952 391-638 limits assumed): as the sequence (P03952 391-638 limits assumed) above
T1 sequence (P03952 20-390 partner limits assumed): as the sequence (P03952 20-390 partner limits assumed) above
The test can be described thus: Neat human plasma assay (contact pathway-activated plasma, FXIIa, PFR-AMC substrate). Type of test: biochemical. As to conditions: sodium citrate human plasma, 78% final plasma, 10 nM human FXIIa, 100 μM PFR-AMC, room temperature. On the procedure:
Neat Human and Rat Plasma Assay
To analyze inhibition of plasma kallikrein in an ex vivo setting, the potency of compounds was measure in contact pathway-activated plasma assays. In a fluorogenic peptide substrate assay, test compounds dissolved in DMSO were added to sodium citrate collected human or rat plasma in a 96-well microplate. Alternatively, citrated plasma was collected from rats administered the compounds orally or by IV. 10 nM of human FXIIa (Enzyme Research Laboratories) diluted in PKa buffer (20 mM Tris-HCl, pH 7.5, 150 mM NaCl, 1 mM EDTA, 0.1% PEG-8000, and 0.1% Triton X-100) was added to the plasma, followed by the 100 μM of the profluorescent, synthetic plasma kallikrein substrate PFR-AMC (also diluted in PKa buffer). Final plasma concentration in the reaction was 78%. Fluorescence was immediately monitored by excitation/emission wavelengths of 360 nm/480 nm respectively over a period of 5 minutes in a microplate reader. The resulting linear increase in fluorescence emission (reflecting PKa proteolysis of PFR-AMC substrate) was fit to extract a proteolytic rate (fluorescent units over time), and this rate was subsequently plotted against compound inhibitor concentration. Resulting plots were fit to a standard 4-parameter IC50/IC90 equation to determine min/max values, IC50/90, and slope. All experimental steps were performed at room temperature.
One may read the IC90 as the point of the concentration-response curve where the effect stands at 90%. High values mean a need for much substance, low ones an effect from little substance. As for `O=C(Nc1cc(OCc2cn3cc(C4CC4)ccc3n2)ccn1)OCc1cc(Cl)ccc1-n1cnnn1` [Compound I-12, 5-chloro-2-(1H-tetrazol-1-yl)benzyl (4-((6-cyclopropylimidazo[1,2-a]pyridin-2-yl)methoxy)pyridin-2-yl)carbamate], the IC90 is 7.5 to 15 µM.

`O=C(Nc1cc(N2C[C@@H](O)C[C@@H]2c2cn3cc(C4CC4)ccc3n2)ncn1)OCc1cc(Cl)ccn1` [Compound I-28, (4-chloropyridin-2-yl)methyl (6-((2R,4S)-2-(6-cyclopropylimidazo[1,2-a]pyridin-2-yl)-4-hydroxypyrrolidin-1-yl)pyrimidin-4-yl)carbamate] gave an IC90 not above 2.5 µM.
